Laboratory results from patent US20210403435A1, “HERBICIDAL COMPOUNDS” (SYNGENTA CROP PROTECTION AG, priority 2018, published 2021).
Counter-ions that a name gives are not always drawn. Like-named read-outs stand apart in the source and are kept apart here.

Experiments:
Test in all cases: Post-emergence efficacy, glasshouse, evaluated after 13 days
Assay type in all cases: in vivo
[1] = tested on: Amaranthus palmeri (AMAPA); settings: for pest or weed control at 500 g/ha: Amaranthus palmeri, 312 h, read-out: Control of weed species AMAPA (100=total damage to plant; 0=no damage to plant)
Method: (§1) Seeds of a variety of test species were sown in standard soil in pots. After cultivation for 14 days (post-emergence) under controlled conditions in a glasshouse (at 24/16° C., day/night; 14 hours light; 65% humidity), the plants were sprayed with an aqueous spray solution derived from the dissolution of the technical active ingredient formula (I) in a small amount of acetone and a special solvent and emulsifier mixture referred to as IF50 (11.12% Emulsogen EL360 TM+44.44% N-methylpyrrolidone+44.44% Dowanol DPM glycol ether), to create a 50 g/l solution which was then diluted to required concentration using 0.25% or 1% Empicol ESC70 (Sodium lauryl ether sulphate)+1% ammonium sulphate as diluent.
(§2) The test plants were then grown in a glasshouse under controlled conditions (at 24/16° C., day/night; 14 hours light; 65% humidity) and watered twice daily. After 13 days the test was evaluated (100=total damage to plant; 0=no damage to plant).
(§3) Ipomoea hederacea (IPOHE), Euphorbia heterophylla (EPHHL), Chenopodium album (CHEAL), Amaranthus palmeri (AMAPA), Lolium perenne (LOLPE), Digitaria sanguinalis (DIGSA), Eleusine indica (ELEIN), Echinochloa crus-galli (ECHCG), Setaria faberi (SETFA)

[2] = tested on: Chenopodium album (CHEAL); settings: for pest or weed control at 500 g/ha: Chenopodium album, 312 h, read-out: Control of weed species CHEAL (100=total damage to plant; 0=no damage to plant)
Method: as §1, §2, §3

[3] = tested on: Digitaria sanguinalis (DIGSA); settings: for pest or weed control at 500 g/ha: Digitaria sanguinalis, 312 h, read-out: Control of weed species DIGSA (100=total damage to plant; 0=no damage to plant)
Method: as §1, §2, §3

[4] = tested on: Echinochloa crus-galli (ECHCG); settings: for pest or weed control at 500 g/ha: Echinochloa crus-galli, 312 h, read-out: Control of weed species ECHCG (100=total damage to plant; 0=no damage to plant)
Method: as §1, §2, §3

[5] = tested on: Eleusine indica (ELEIN); settings: for pest or weed control at 500 g/ha: Eleusine indica, 312 h, read-out: Control of weed species ELEIN (100=total damage to plant; 0=no damage to plant)
Method: as §1, §2, §3

[6] = tested on: Euphorbia heterophylla (EPHHL); settings: Euphorbia heterophylla, 312 h, read-out: Control of weed species EPHHL (100=total damage to plant; 0=no damage to plant)
Method: as §1, §2, §3

[7] = tested on: Ipomoea hederacea (IPOHE); settings: for pest or weed control at 500 g/ha: Ipomoea hederacea, 312 h, read-out: Control of weed species IPOHE (100=total damage to plant; 0=no damage to plant)
Method: as §1, §2, §3

[8] = tested on: Lolium perenne (LOLPE); settings: for pest or weed control at 500 g/ha: Lolium perenne, 312 h, read-out: Control of weed species LOLPE (100=total damage to plant; 0=no damage to plant)
Method: as §1, §2, §3

[9] = tested on: Setaria faberi (SETFA); settings: for pest or weed control at 500 g/ha: Setaria faberi, 312 h, read-out: Control of weed species SETFA (100=total damage to plant; 0=no damage to plant)
Method: as §1, §2, §3

[10] = post-emergence application, 500 g/Ha, evaluated after 13 days

Row | SMILES | pest or weed control at 500 g/ha [1, 10] | pest or weed control at 500 g/ha [2, 10] | pest or weed control at 500 g/ha [3, 10] | pest or weed control at 500 g/ha [4, 10] | pest or weed control at 500 g/ha [5, 10] | pest or weed control at 500 g/ha [6, 10] | pest or weed control at 500 g/ha [7, 10] | pest or weed control at 500 g/ha [8, 10] | pest or weed control at 500 g/ha [9, 10] | other results
1 | CNC(=O)c1cc[n+](CCS(=O)(=O)[O-])nc1 [Compound A1, 2-[4-(methylcarbamoyl)pyridazin-1-ium-1-yl]ethanesulfonate] | 100% | 70% | 90% | 60% | 70% | 70% | 60% | 80% | 80% | 
2 | CNC(=O)c1cc[n+](CCC(=O)O)nc1 [Compound A4, 3-[4-(methylcarbamoyl)pyridazin-1-ium-1-yl]propanoic acid trifluoroacetate] |  |  |  |  |  |  |  |  |  | pest or weed control at 500 g/ha ([2]; post-emergence): 80%; pest or weed control at 500 g/ha ([3]; post-emergence): 100%; pest or weed control at 500 g/ha ([4]; post-emergence): 90%; pest or weed control at 500 g/ha ([5]; post-emergence): 100%; pest or weed control at 500 g/ha ([6]; post-emergence): 90%; pest or weed control at 500 g/ha ([7]; post-emergence): 80%; pest or weed control at 500 g/ha ([8]; post-emergence): 60%; pest or weed control at 500 g/ha ([9]; post-emergence): 90%
3 | CC(C)N(C)C(=O)c1cc[n+](CCS(=O)(=O)O)nc1 [Compound A9] | 90% | 90% | 50% | 30% | 20% |  | 30% | 30% | 60% | 
4 | CCCCNC(=O)c1cc[n+](CCC(=O)O)nc1 [Compound A45] | 80% | 90% | 70% | 70% | 80% |  | 30% | 60% | 90% | 
5 | CCNC(=O)c1cc[n+](CCS(=O)(=O)[O-])nc1 [Compound A48] | 90% |  | 90% | 70% | 100% |  | 80% | 70% | 90% | 
6 | O=C(NCCO)c1cc[n+](CCS(=O)(=O)[O-])nc1 [Compound A49] | 100% | 80% | 100% | 80% | 30% |  | 70% | 60% | 90% | 
7 | CNC(=O)c1cc[n+](CCS(=O)(=O)[O-])nc1-c1ccccc1 [Compound A54] | 80% | 70% | 60% | 40% | 50% |  | 10% | 0% | 20% | 
8 | CNC(=O)c1cc[n+](CCC(=O)O)nc1-c1ccccc1 [Compound A55] | 100% | 80% | 60% | 80% | 30% |  | 40% | 0% | 40% | 
9 | CNC(=O)c1cc[n+](CCS(=O)(=O)[O-])nc1C [Compound A56] |  |  |  |  |  |  |  |  |  | Control of weed species AMAPA (100=total damage to plant; 0=no damage to plant) [1, 10]: 100; Control of weed species CHEAL (100=total damage to plant; 0=no damage to plant) [2, 10]: 90; Control of weed species DIGSA (100=total damage to plant; 0=no damage to plant) [3, 10]: 80; Control of weed species ECHCG (100=total damage to plant; 0=no damage to plant) [4, 10]: 90; Control of weed species ELEIN (100=total damage to plant; 0=no damage to plant) [5, 10]: 60; Control of weed species IPOHE (100=total damage to plant; 0=no damage to plant) [7, 10]: 30; Control of weed species LOLPE (100=total damage to plant; 0=no damage to plant) [8, 10]: 40; Control of weed species SETFA (100=total damage to plant; 0=no damage to plant) [9, 10]: 60
10 | O=C(O)CC[n+]1ccc(C(=O)NC2CCCC2)cn1 [Compound A58] | 70% | 60% | 90% | 70% | 90% |  | 30% | 90% | 90% | 
11 | O=C(O)CC[n+]1ccc(C(=O)NC2CS(=O)(=O)C2)cn1 [Compound A67] | 30% | 50% | 100% | 100% | 90% |  | 30% | 90% | 100% | 
12 | O=C(O)CC[n+]1ccc(C(=O)NC2C[S+]([O-])C2)cn1 (stereo not drawn) [Compound A68] | 100% | 90% | 100% | 100% |  | 100% | 100% | 90% | 70% | 
13 | C#CC(C)(C)NC(=O)c1cc[n+](CCC(=O)O)nc1 [Compound A77] | 100% | 90% |  |  |  | 100% | 10% | 80% | 100% | 
14 | C#CC(C)NC(=O)c1cc[n+](CCC(=O)O)nc1 (stereo not drawn) [Compound A78] | 100% | 100% |  |  |  | 70% | 90% | 80% | 100% | 
15 | CC(=O)NNC(=O)c1cc[n+](CCC(=O)O)nc1 [Compound A105] | 50% | 70% |  | 40% | 30% | 60% | 30% | 10% | 60% | 
16 | CCNC(=O)c1cc[n+](CCP(=O)(O)O)nc1 [Compound A119] | 100% | 100% |  | 30% | 30% | 80% | 50% | 20% | 50% | 
17 | CCNC(=O)c1cc[n+](C[C@H](N)C(=O)O)nc1 [Compound A121, [(1S)-1-carboxy-2-[4-(ethylcarbamoyl)pyridazin-1-ium-1-yl]ethyl]ammonium 2,2,2-trifluoroacetate] |  |  |  |  |  |  |  |  |  | pest or weed control at 500 g/ha ([1]; post-emergence): 10%; pest or weed control at 500 g/ha ([2]; post-emergence): 20%; pest or weed control at 500 g/ha ([4]; post-emergence): 10%; pest or weed control at 500 g/ha ([5]; post-emergence): 10%; pest or weed control at 500 g/ha ([6]; post-emergence): 30%; pest or weed control at 500 g/ha ([7]; post-emergence): 10%; pest or weed control at 500 g/ha ([8]; post-emergence): 10%; pest or weed control at 500 g/ha ([9]; post-emergence): 10%
